Test results reported in EP0881220A1, “DIARYLSULTAM DERIVATIVES” (priority 1996, dated 1997).

Experiments:
[1] = target: sigma 1 binding site (Cavia porcellus, UniProt Q60492)
[2] = target: T1, sigma 2 binding site (Rattus norvegicus, UniProt Q5U3Y7); assay: Sigma 2 selective receptor binding inhibition assay with [^3H]-di-o-tolylguanidine
T1 sequence (Q5U3Y7 1-176): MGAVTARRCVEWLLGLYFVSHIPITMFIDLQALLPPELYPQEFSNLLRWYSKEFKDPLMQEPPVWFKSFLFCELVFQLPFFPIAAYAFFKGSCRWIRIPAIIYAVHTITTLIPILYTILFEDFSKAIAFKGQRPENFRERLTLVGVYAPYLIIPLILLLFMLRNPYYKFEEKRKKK

[3] = target: T2, Dopamine D2 (Rattus norvegicus, UniProt P61169); assay: Binding to dopaminergic receptors using rat striata (method of Terai et al.)
T2 construct: dopaminergic receptors was also measured using rat striata; from tissue; host or cells: rat striata
Experimental: The binding of these compounds to dopaminergic receptors was also measured using rat striata according to the method described by Terai et al. (M. Terai, et al., Eur. J. Pharmacol. 1989, 173, 177).

T2 sequence (P61169 whole entry): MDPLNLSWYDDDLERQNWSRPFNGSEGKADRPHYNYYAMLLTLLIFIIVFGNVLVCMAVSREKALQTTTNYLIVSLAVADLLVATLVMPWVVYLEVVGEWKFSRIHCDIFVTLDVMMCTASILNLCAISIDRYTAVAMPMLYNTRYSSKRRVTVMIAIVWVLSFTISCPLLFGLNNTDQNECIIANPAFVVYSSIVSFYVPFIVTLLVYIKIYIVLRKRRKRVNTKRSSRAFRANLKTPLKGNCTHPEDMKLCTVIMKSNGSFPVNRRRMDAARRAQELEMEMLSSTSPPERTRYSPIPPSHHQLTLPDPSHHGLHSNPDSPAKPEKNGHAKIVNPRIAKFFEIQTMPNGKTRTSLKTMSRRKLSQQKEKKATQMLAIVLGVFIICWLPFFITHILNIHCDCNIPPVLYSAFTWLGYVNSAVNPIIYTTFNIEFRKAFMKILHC
Chain of sigma 1 binding site (Q60492 whole entry): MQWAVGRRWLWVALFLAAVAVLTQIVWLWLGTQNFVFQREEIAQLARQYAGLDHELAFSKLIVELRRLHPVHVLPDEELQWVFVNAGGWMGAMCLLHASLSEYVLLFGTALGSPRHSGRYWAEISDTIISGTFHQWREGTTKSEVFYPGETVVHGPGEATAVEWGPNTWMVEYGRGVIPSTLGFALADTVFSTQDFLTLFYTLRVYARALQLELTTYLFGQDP

SMILES: O=C(O)/C=C/C(=O)O.O=S1(=O)c2ccccc2Oc2ccccc2N1CC1CCN(C[C@H](O)C23CC4CC(CC(C4)C2)C3)CC1.O=S1(=O)c2ccccc2Oc2ccccc2N1CC1CCN(C[C@H](O)C23CC4CC(CC(C4)C2)C3)CC1 [Example 10, (R,S)-1-(1-Adamantyl)-2-[4-(6H-dibenzo[b,f][1,4,5]oxathiazepin-6-yl-methyl)piperidin-1-yl]ethanol S,S-dioxide hemi-fumarate]
- Ki [1]: 200 nM
- S2/S1 Ratio ([2]; ratio of Sigma 2 Ki to Sigma 1 Ki): 0.004
- Ki ([2]; read-out: Sigma 2 Ki(nM ± SEM), [^3H]-DTG 1 nM, rat liver crude P2 membrane fraction, 500 nM pentazocine, 2 hours at 25°C): 0.76 nM
- Ki [3]: > 1000 nM
